The text below walks through data of US8946266B2, “Substituted triazole and imidazole derivatives as gamma secretase modulators” (Janssen Pharmaceuticals, Inc., priority 2009, dated 2015).

One data set deals with Aβtotal. Briefly: In vivo efficacy, Method 2: brain soluble Aβtotal lowering 4 h after a single oral dose, ELISA (Table 4b). Also on record: species or system mouse. Particulars: dose 30 mg/kg oral dosing. In a few lines: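 Non-transgenic mice or rats, fasted overnight, received a single oral dose (30 mg/kg) in 20% Captisol or 20% hydroxypropyl β-cyclodextrin, or vehicle, and were sacrificed after 4 h. Right brain hemisphere was extracted in 0.4% DEA/50 mM NaCl, and soluble Aβtotal in the high-speed supernatant was measured by sandwich ELISA (JRF/rAβ/2 capture, biotinylated 4G8 detection, fluorogenic read-out).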
(In general: An ELISA detects its analyte on a solid surface through an enzyme-linked reagent.)

Another data set has as its system Aβ42. As to the kind of experiment: In vivo efficacy, Method 2: brain soluble Aβ42 lowering 4 h after a single oral dose, ELISA (Table 4b). The arrangement: species or system mouse. To be noted: dose 30 mg/kg oral dosing. In a few lines: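 Overnight-fasted non-transgenic rodents got a single oral dose of 30 mg/kg in 20% Captisol or 20% hydroxypropyl β-cyclodextrin and were killed 4 h later. Right-hemisphere soluble fraction (0.4% DEA/50 mM NaCl extract, neutralised) was assayed for Aβ42 by sandwich ELISA with fluorogenic read-out, compared with untreated animals.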

In the case of `COc1cc(-c2nc(Nc3cccc(C(F)(F)F)c3)n(C)n2)ccc1-n1cnc(C)c1` [Compound 146], the “Aβtotal (% Ctrl) _Mean” value in the data set on Aβtotal is listed as 2 % Ctrl. In the data set with Aβ42, the “Aβ42 (% Ctrl) _Mean” value is 17 % Ctrl. On the same counts, the results for `COc1cc(-c2nc(Nc3ccc(F)cc3C(F)(F)F)n(C)n2)ccc1-n1cnc(C)c1` [Compound 15] are −5 % Ctrl and 37 % Ctrl.

Compound `COc1cc(-c2nc(-c3ccccc3)n(C)n2)ccc1-n1cnc(C)c1` [Compound 9] displayed a melting point of 115.8 °C.

For orientation: melting point means the temperature, or range, at which the solid turns liquid.
